The text below walks through data of ChEMBL document CHEMBL2311267, “Design, synthesis and biological evaluation of glucose-containing scutellarein derivatives as neuroprotective agents based on metabolic mechanism of scutellarin in vivo” (Bioorg Med Chem Lett, 2013).

SMILES strings stand for the structures. ≈ marks a conversion by molar mass, not a printed value.

For series [1], the system named is PC-12. As to the kind of experiment: Neuroprotective activity in rat PC12 cells assessed as inhibition of H2O2-induced cytotoxicity at 50 uM after 3 hrs by MTT assay relative to control. It counts as functional. Conditions: PC-12, 3 h. A general note: Tetrazolium assays rely on reduction of a dye to a coloured formazan, in cell work by metabolically active cells.

The subject of series [2] is Plasma. Briefly: Anticoagulant activity in New Zealand white rabbit platelet-poor plasma assessed as fibrinogen content at 100 uM. Format: functional, Oryctolagus cuniculus.
In series [3] the test system is PC-12. As to the kind of experiment: Neuroprotective activity in rat PC12 cells assessed as inhibition of H2O2-induced cytotoxicity at 25 uM after 3 hrs by MTT assay relative to control. It counts as functional. Conditions: PC-12, 3 h.
The test system of series [4] is Radical scavenging activity. Briefly: Antioxidant activity assessed as inhibition of DPPH-radical production. Format: functional.
The test system of series [5] is Plasma. Briefly: Anticoagulant activity in New Zealand white rabbit platelet-poor plasma assessed as thrombin time at 100 uM. Format: functional, Oryctolagus cuniculus.
The nature of series [6]: Aqueous solubility of the compound by UV-Vis spectrophotometric analysis. Conditions: water. It counts as physicochemical.
Series [7] concerns Plasma. As to the kind of experiment: Anticoagulant activity in New Zealand white rabbit platelet-poor plasma assessed as activated partial thromboplastin time at 100 uM. Format: functional, Oryctolagus cuniculus.
Series [8] concerns Plasma. As to the kind of experiment: Anticoagulant activity in New Zealand white rabbit platelet-poor plasma assessed as prothrombin time at 100 uM. Format: functional, Oryctolagus cuniculus.

As for `O=c1cc(-c2ccc(O)cc2)oc2cc(O[C@@H]3O[C@H](CO)[C@H](O)[C@H](O)[C@H]3O)c(O)c(O)c12`, the inhibition (commonly the change of the read-out against control, counted positive when it falls) at 50 µM in series [1] was found to be 83.3%. Further, in series [2], the Activity is on record as 20.81 g/L. Further, the inhibition at 25 µM in series [3] was 61%. For the same compound, in series [4], the IC50 (commonly the concentration that inhibits the measured activity by half) was 28.4 µM. Further, in series [5], the TT stood at 29.17 s. The amount in solution in series [6] (solubility) came to 8.93 µM (≈ 4 µg/mL). In addition, the APTT in series [7] is given as 39.62 s. Further, in series [8], the PT turned out to be 9.93 s.
Consider `O=C(O)[C@H]1O[C@@H](Oc2cc3oc(-c4ccc(O)cc4)cc(=O)c3c(O)c2O)[C@H](O)[C@@H](O)[C@@H]1O` [SCUTELLARIN], for which, in series [1], the inhibition at 50 µM came to 78.8%. Besides, the Activity in series [2] stood at 37.96 g/L. In addition, the inhibition at 25 µM in series [3] is 52.6%. Moreover, in series [4], the IC50 was found to be 26.8 µM. Besides, the TT in series [5] worked out at 21.35 s. Further, the solubility – broadly, how much of the substance goes into solution per volume – in series [6] is 7.53 µM (≈ 3.48 µg/mL). Also, the APTT in series [7] amounted to 33.06 s. In addition, the PT in series [8] was 6.91 s.
Regarding `O=c1cc(-c2ccc(O)cc2)oc2cc(O[C@@H]3O[C@H](CO)[C@@H](O)[C@H](O)[C@H]3O)c(O)c(O)c12`, the inhibition at 50 µM in series [1] stood at 79.9%. Besides, the Activity in series [2] was 32.43 g/L. For the same compound, in series [3], the inhibition at 25 µM amounted to 65.5%. In series [4], the IC50 was found to be 25.3 µM. Also, in series [5], the TT amounted to 18.13 s. Moreover, the solubility in series [6] was 7.85 µM (≈ 3.52 µg/mL). In addition, the APTT in series [7] came out at 43.06 s. In series [8], the PT was determined as 7.81 s.
Consider `O=c1cc(-c2ccc(O)cc2)oc2cc(O[C@@H]3O[C@H](CO)[C@@H](O)[C@H](O)[C@@H]3O)c(O)c(O)c12`, for which, in series [1], the inhibition at 50 µM amounted to 56.4%. The Activity in series [2] worked out at 26.68 g/L. Besides, the inhibition at 25 µM in series [3] was determined as 23.5%. Besides, the IC50 in series [4] amounted to 34.9 µM. Also, the TT in series [5] is 20.54 s. The solubility in series [6] worked out at 8.19 µM (≈ 3.67 µg/mL). In addition, the APTT in series [7] amounted to 38.2 s. The PT in series [8] was found to be 6.57 s.
